The values that follow come from ChEMBL document CHEMBL1201862, “PubChem BioAssay data set” (2004).

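Five compound concentrations were applied to cells in 96-well plates for 48 hours; endpoints were derived by simple linear interpolation of the resulting dose-response curve. GI50: concentration for 50% inhibition of growth.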 Activity calls are given as the source filed them. Cut-off read from the data, not from the text of the source: active = GI50 up to about 1.1 µM and inactive = higher. Some results are limits rather than exact numbers.

Common to all, as to assay: growth of human tumour cells (NCI), 48 h
Experiment [1] deals with NCI-H522.
In experiment [2] the test system is HOP-62.
For experiment [3], the system named is OVCAR-4.
Experiment [4] concerns RXF 393.
Experiment [5] concerns LOX IMVI.
Experiment [6] relates to IGROV-1.
Experiment [7] concerns SK-OV-3.
Experiment [8] concerns CCRF-CEM.
In experiment [9] the test system is OVCAR-3.
For experiment [10], the system named is SF-295.
Experiment [11] relates to SR.
Experiment [12] has as its system OVCAR-8.
For experiment [13], the system named is RPMI-8226.
For experiment [14], the system named is 786-0.
The subject of experiment [15] is Malme-3M.
Experiment [16] has as its system UACC-62.
Experiment [17] concerns UACC-257.
Experiment [18] deals with OVCAR-5.
Experiment [19] relates to MOLT-4.
Experiment [20] relates to TK-10.

For `Cc1cccc(NC(=S)N/N=C2\C(=O)Nc3ccccc32)c1`, the GI50 was > 100 µM (inactive) in experiment [1]; 62.7 µM (inactive) in [2]; 34.9 µM (inactive) in experiment [3]; 30.1 µM (inactive) in experiment [4]; 51.4 µM (inactive) in experiment [5]; 49.3 µM (inactive) in [6]. In addition, the GI50 in experiment [7] was > 100 µM (inactive); in experiment [8], 55 µM (inactive); in experiment [9], 32.3 µM (inactive); in experiment [10], 56.9 µM (inactive); in experiment [11], 70.3 µM (inactive); in [12], > 100 µM (inactive). For the same molecule, the GI50 in [13] was > 100 µM (inactive); in [14], 59.4 µM (inactive); in experiment [15] it was 66.1 µM (inactive); in [16], > 100 µM (inactive); in [17] it was > 100 µM (inactive); in [18], > 100 µM (inactive). Moreover, the GI50 in experiment [19] is 59 µM (inactive).
`CCC(C)C(=O)c1c(O)c(C/C=C(\C)CCC=C(C)C)c(O)c2c(C(O)CC)cc(=O)oc12` (stereo not given): the GI50 was 0.871 µM (active) in experiment [1]; 1.95 µM (inactive) in [2]; 2.11 µM (inactive) in experiment [3]; 1.79 µM (inactive) in [4]; 2.74 µM (inactive) in experiment [5]; 2.68 µM (inactive) in experiment [6]. Further, the GI50 is 4.41 µM (inactive) in experiment [7]; 0.693 µM (active) in [8]; 2.69 µM (inactive) in experiment [9]; 2.81 µM (inactive) in [10]; 1.31 µM (inactive) in experiment [11]; 1.09 µM (active) in experiment [13]. Moreover, the GI50 in experiment [15] is 2.24 µM (inactive); in experiment [20] it was 3.81 µM (inactive); in [16] it was 1.3 µM (inactive); in [17], 2.21 µM (inactive); in [18] it was 5.28 µM (inactive); in experiment [19] it was 1.59 µM (inactive).
Regarding `COc1cc([C@@H]2c3cc4c(cc3[C@@H](Nc3ccc(Cl)cc3C(=O)c3ccccc3Cl)[C@H]3COC(=O)[C@H]23)OCO4)cc(OC)c1OC`, the GI50 in experiment [1] is 0.0685 µM (active); in experiment [2], 0.443 µM (active); in [3], > 45.8 µM (inactive); in [4], 0.144 µM (active); in experiment [5] it was 0.245 µM (active); in [6], 0.261 µM (active). Further, the GI50 in experiment [7] was 1.19 µM (inactive); in experiment [8], 0.101 µM (active); in experiment [9], 0.332 µM (active); in experiment [10], 0.121 µM (active); in [11] it was 0.0713 µM (active); in experiment [12], 0.152 µM (active). For the same molecule, the GI50 was 0.173 µM (active) in [13]; 0.261 µM (active) in experiment [14]; 0.143 µM (active) in experiment [15]; 39.7 µM (inactive) in experiment [20]; 0.118 µM (active) in experiment [16]; 0.184 µM (active) in experiment [17]. Moreover, in experiment [19], the GI50 is 0.142 µM (active).
Consider `CC1NC(=O)C2=C1C(N)=NC(=O)C2` (stereo not given), for which the GI50 in experiment [1], in [3], in experiment [4], in [5], in experiment [6] and in experiment [7] was > 100 µM (inactive) throughout. Also, the GI50 in experiment [9], in experiment [10], in [11], in experiment [12], in experiment [13] and in [14] was > 100 µM (inactive) in each case. The GI50 in experiment [15], in experiment [20], in experiment [16], in experiment [17], in [18] and in experiment [19] was > 100 µM (inactive) in each case.
Regarding `CSc1nc2c(c(=O)n1C)N=C(c1ccc(Cl)cc1)CC(c1ccccc1)N2` (stereo not given), the GI50 in experiment [1] was 17.6 µM (inactive); in experiment [2] it was 27.6 µM (inactive); in experiment [3] it was 6.84 µM (inactive); in experiment [4], 39.4 µM (inactive); in [5], 20.6 µM (inactive); in experiment [6], 18.3 µM (inactive). The GI50 in [7] is 29.4 µM (inactive); in [8] it was 26 µM (inactive); in [9], 33.7 µM (inactive); in [10] it was 21.3 µM (inactive); in experiment [11] it was 29.9 µM (inactive); in experiment [12], 27.8 µM (inactive). The GI50 in experiment [13] was 22 µM (inactive); in experiment [14], 31 µM (inactive); in experiment [15], 16.1 µM (inactive); in experiment [16] it was 16.1 µM (inactive); in [17], 22.6 µM (inactive); in [18] it was 33.8 µM (inactive). Besides, the GI50 in experiment [19] is 14.1 µM (inactive).
For `Oc1ccc(-c2nc3ccc4ccccc4c3c3c2CCCC3)c(O)c1`, the GI50 is 12.1 µM (inactive) in experiment [1]; 57.7 µM (inactive) in experiment [2]; 66.8 µM (inactive) in [3]; 34.9 µM (inactive) in experiment [4]; 32.7 µM (inactive) in experiment [5]; 4.34 µM (inactive) in experiment [6]. Besides, the GI50 in [7] was 48.6 µM (inactive); in experiment [9], 24.4 µM (inactive); in experiment [10], 37.2 µM (inactive); in experiment [11], 20.2 µM (inactive); in experiment [12] it was 13.8 µM (inactive); in experiment [13] it was 9.31 µM (inactive). Besides, the GI50 in [14] was 11.7 µM (inactive); in [15], 19.4 µM (inactive); in [20] it was 37.1 µM (inactive); in experiment [16], 19.5 µM (inactive); in [17] it was 10.5 µM (inactive); in [18], 20 µM (inactive). Besides, in experiment [19], the GI50 was > 48.3 µM (inactive).
Take `O=C(/C=C/c1ccccc1)Oc1cccc(O)c1`: the GI50 in experiment [1] was 6.81 µM (inactive); in experiment [2], 53.6 µM (inactive); in [3], 36.3 µM (inactive); in experiment [4], > 100 µM (inactive); in experiment [5], 27.5 µM (inactive); in [6] it was 17.3 µM (inactive). Further, the GI50 is > 100 µM (inactive) in [7]; 73.8 µM (inactive) in [9]; 17.8 µM (inactive) in experiment [10]; 18.2 µM (inactive) in experiment [11]; 44.3 µM (inactive) in experiment [12]; 9.55 µM (inactive) in experiment [13]. Also, the GI50 in experiment [14] was 77.8 µM (inactive); in [15], 19.5 µM (inactive); in [20], > 100 µM (inactive); in experiment [16], > 100 µM (inactive); in [17] it was > 100 µM (inactive); in experiment [18], 30.3 µM (inactive). Also, the GI50 in experiment [19] is 6.03 µM (inactive).
Regarding `O=C(Nc1nc2ncn(CCO)c2c(=O)[nH]1)c1ccccc1`, the GI50 in experiment [1], in [2], in experiment [3], in [4], in experiment [5] and in experiment [6] was > 100 µM (inactive) in each case. Besides, the GI50 in experiment [7], in [8], in [9], in [10], in experiment [11] and in experiment [12] was > 100 µM (inactive) throughout. Besides, the GI50 in experiment [13], in experiment [14], in experiment [15], in [20], in experiment [16] and in experiment [17] was > 100 µM (inactive) throughout. Besides, in experiment [18], the GI50 was > 100 µM (inactive).
With `C/C(CC(O)(C(F)(F)F)C(F)(F)F)=N/Nc1ccc([N+](=O)[O-])cc1[N+](=O)[O-]`, the GI50 in experiment [1] is 2.07 µM (inactive); in [2] it was 2.99 µM (inactive); in experiment [3] it was 3.42 µM (inactive); in [4] it was 2.12 µM (inactive); in experiment [5] it was 3.3 µM (inactive); in [6] it was 4.15 µM (inactive). In addition, the GI50 in [7] is 2.33 µM (inactive); in experiment [8], 3.41 µM (inactive); in [9] it was 1.96 µM (inactive); in experiment [10], 4.1 µM (inactive); in [11], 4.9 µM (inactive); in experiment [12], 3 µM (inactive). Further, the GI50 is 1.56 µM (inactive) in experiment [13]; 3.5 µM (inactive) in experiment [14]; 2.11 µM (inactive) in [15]; 3.56 µM (inactive) in experiment [20]; 3.02 µM (inactive) in [16]; 2.87 µM (inactive) in experiment [17]. In addition, the GI50 in experiment [19] is 4.4 µM (inactive).
Take `CN(C)/C=N/CC(O)c1ccccc1` (stereo not given): the GI50 in experiment [1], in experiment [2], in experiment [3], in experiment [4], in experiment [5] and in experiment [6] was > 100 µM (inactive) in each case. Also, the GI50 in experiment [7], in experiment [8], in [9], in experiment [11], in experiment [13] and in experiment [14] was > 100 µM (inactive) each time. In addition, the GI50 in experiment [15], in [20], in experiment [16], in experiment [18] and in experiment [19] was > 100 µM (inactive) each time.
On to `CN(C)CCC1(C2=CCCC2)CC/C(=C\c2ccccc2)C1=O` (stereo not given), for which the GI50 in experiment [1] is 14.1 µM (inactive); in [2], 16.1 µM (inactive); in experiment [3], 16.6 µM (inactive); in [4] it was 12.5 µM (inactive); in experiment [5], 17.1 µM (inactive); in [6], 15.5 µM (inactive). Also, the GI50 in experiment [8] is 17.1 µM (inactive); in experiment [9], 15.2 µM (inactive); in [10], 19.1 µM (inactive); in experiment [11] it was 25.2 µM (inactive); in experiment [12], 16.1 µM (inactive); in experiment [13], 14.6 µM (inactive). Further, the GI50 in experiment [14] is 14.7 µM (inactive); in experiment [15] it was 15.7 µM (inactive); in [20] it was 15.6 µM (inactive); in [16], 13.6 µM (inactive); in [17] it was 15.2 µM (inactive); in experiment [18] it was 19.6 µM (inactive). Moreover, the GI50 in experiment [19] is 14.3 µM (inactive).
